# Laboratory results published in PMC6980356 (Bioorganic & medicinal chemistry letters, 2014).
# Assays:
# hTRPV1 [1] = molecular target: T1, hTRPV1 (Homo sapiens, UniProt Q8NER1); assay: FLIPR inhibition of TRPV1 activation by capsaicin; format: cell-based; settings: for antagonism toward capsaicin (in words): capsaicin 100 nM, hTRPV1 in CHO cells
# hTRPV1 [2] = molecular target: T1, hTRPV1; assay: hTRPV1 antagonism toward pH activation; format: cell-based; settings: activator pH
# hTRPV1 [3] = molecular target: T1, hTRPV1; assay: hTRPV1 antagonism toward heat; format: cell-based
# [4] = system: CCI-induced cold allodynia; assay: Mouse chronic constriction injury; format: in vivo; settings: mouse CCI model, po
# hTRPV1 [5] = molecular target: T1, hTRPV1; assay: hTRPV1 antagonism toward NADA activation; format: cell-based; settings: activator NADA
# T1 sequence (Q8NER1 whole entry): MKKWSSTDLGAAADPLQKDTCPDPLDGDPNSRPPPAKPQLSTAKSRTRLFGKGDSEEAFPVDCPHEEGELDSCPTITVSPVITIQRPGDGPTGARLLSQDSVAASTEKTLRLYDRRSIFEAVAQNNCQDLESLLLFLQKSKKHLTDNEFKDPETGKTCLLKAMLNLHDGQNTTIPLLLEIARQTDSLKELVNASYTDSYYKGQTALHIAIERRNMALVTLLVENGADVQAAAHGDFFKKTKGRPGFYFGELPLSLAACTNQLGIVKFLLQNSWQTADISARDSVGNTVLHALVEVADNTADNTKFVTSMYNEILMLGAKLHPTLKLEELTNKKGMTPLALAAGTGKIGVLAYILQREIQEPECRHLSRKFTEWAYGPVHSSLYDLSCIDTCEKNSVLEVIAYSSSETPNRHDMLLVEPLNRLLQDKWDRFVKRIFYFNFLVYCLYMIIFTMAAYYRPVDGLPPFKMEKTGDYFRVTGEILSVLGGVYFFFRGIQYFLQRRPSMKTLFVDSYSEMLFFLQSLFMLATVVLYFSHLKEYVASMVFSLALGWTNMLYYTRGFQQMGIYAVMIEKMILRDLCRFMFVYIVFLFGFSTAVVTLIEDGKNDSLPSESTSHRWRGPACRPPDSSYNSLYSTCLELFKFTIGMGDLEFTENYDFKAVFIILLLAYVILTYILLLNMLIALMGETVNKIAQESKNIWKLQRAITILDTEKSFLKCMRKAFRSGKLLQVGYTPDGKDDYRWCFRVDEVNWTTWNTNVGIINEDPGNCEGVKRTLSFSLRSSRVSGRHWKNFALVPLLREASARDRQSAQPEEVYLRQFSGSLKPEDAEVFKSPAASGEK
Structure (SMILES),antagonism toward capsaicin (in words) (hTRPV1 [1]),fold increase in potency compared to 8 (hTRPV1 [1]; Ki(CAP) relative to parent 8),also measured
CC(C(=O)NCc1ccc(C(F)(F)F)nc1Cc1ccccc1)c1ccc(NS(C)(=O)=O)c(F)c1 (stereo not drawn) [Compound 35],weak antagonist,,
CC(C(=O)NCc1ccc(C(F)(F)F)nc1-c1ccc(N(C)C)cc1)c1ccc(NS(C)(=O)=O)c(F)c1 (stereo not drawn) [Compound 15],,2 fold,
CC(C(=O)NCc1ccc(C(F)(F)F)nc1-c1cccc(F)c1)c1ccc(NS(C)(=O)=O)c(F)c1 (stereo not drawn) [Compound 10],,5 fold,
CC(C(=O)NCc1ccc(C(F)(F)F)nc1-c1ccc(F)cc1)c1ccc(NS(C)(=O)=O)c(F)c1 (stereo not drawn) [Compound 9],excellent antagonism,16 fold,antagonism toward pH (in words) (hTRPV1 [2]): moderate antagonism; IC50 (hTRPV1 [3]): 25.9 nM; antagonism toward heat (in words) (hTRPV1 [3]; activator heat): moderate antagonism; anti-allodynic efficacy (limited efficacy) [4]: 53 % MPE; antagonism toward NADA (in words) (hTRPV1 [5]): excellent antagonism
CC(C(=O)NCc1ccc(C(F)(F)F)nc1-c1cccc(Cl)c1)c1ccc(NS(C)(=O)=O)c(F)c1 (stereo not drawn) [Compound 13],,13 fold,
CC(C(=O)NCc1ccc(C(F)(F)F)nc1-c1ccsc1)c1ccc(NS(C)(=O)=O)c(F)c1 (stereo not drawn) [Compound 27],potent antagonist,,
CC(C(=O)NCc1ccc(C(F)(F)F)nc1-c1ccco1)c1ccc(NS(C)(=O)=O)c(F)c1 (stereo not drawn) [Compound 28],higher potency than phenyl derivative 8,,
CC(C(=O)NCc1ccc(C(F)(F)F)nc1CCc1ccccc1)c1ccc(NS(C)(=O)=O)c(F)c1 (stereo not drawn) [Compound 36],dramatic increase in antagonism,,
CC(C(=O)NCc1ccc(C(F)(F)F)nc1-c1ccc(C(C)(C)C)cc1)c1ccc(NS(C)(=O)=O)c(F)c1 (stereo not drawn) [Compound 16],,13 fold,
CC(C(=O)NCc1ccc(C(F)(F)F)nc1-c1ccccc1)c1ccc(NS(C)(=O)=O)c(F)c1 (stereo not drawn) [Compound 8],reasonable antagonism,,fold less potent than the 2-cyclohexyl derivative (hTRPV1 [1]; Ki(CAP) relative to 2-cyclohexyl derivative): ca. 10 fold
CC(C(=O)NCc1ccc(C(F)(F)F)nc1-c1cccc(NS(C)(=O)=O)c1)c1ccc(NS(C)(=O)=O)c(F)c1 (stereo not drawn) [Compound 17],lack of activity,,
CC(C(=O)NCc1ccc(C(F)(F)F)nc1-c1cccs1)c1ccc(NS(C)(=O)=O)c(F)c1 (stereo not drawn) [Compound 26],,ca. 20 fold,
Cc1cc(-c2nc(C(F)(F)F)ccc2CNC(=O)C(C)c2ccc(NS(C)(=O)=O)c(F)c2)ccc1F (stereo not drawn) [Compound 19],retained high potencies,,
CC(C(=O)NCc1ccc(C(F)(F)F)nc1-n1ccnc1)c1ccc(NS(C)(=O)=O)c(F)c1 (stereo not drawn) [Compound 30],weak antagonist,,
CC(C(=O)NCc1ccc(C(F)(F)F)nc1-c1ccc(Cl)c(Cl)c1)c1ccc(NS(C)(=O)=O)c(F)c1 (stereo not drawn) [Compound 20],retained high potencies,,
COc1ccc(-c2nc(C(F)(F)F)ccc2CNC(=O)C(C)c2ccc(NS(C)(=O)=O)c(F)c2)cc1 (stereo not drawn) [Compound 14],,6 fold,
CC(C(=O)NCc1ccc(C(F)(F)F)nc1-c1ccc(F)c(Cl)c1)c1ccc(NS(C)(=O)=O)c(F)c1 (stereo not drawn) [Compound 18],,ca. 30 fold,
CC(C(=O)NCc1ccc(C(F)(F)F)nc1-c1ccc(Cl)cc1)c1ccc(NS(C)(=O)=O)c(F)c1 (stereo not drawn) [Compound 12],,9 fold,
CC(C(=O)NCc1ccc(C(F)(F)F)nc1-c1ccccc1F)c1ccc(NS(C)(=O)=O)c(F)c1 (stereo not drawn) [Compound 11],,,fold reduction in potency compared to 8 (hTRPV1 [1]; Ki(CAP) relative to parent 8): 10 fold
CC(C(=O)NCc1ccc(C(F)(F)F)nc1-c1ccoc1)c1ccc(NS(C)(=O)=O)c(F)c1 (stereo not drawn) [Compound 29],higher potency than phenyl derivative 8,,
